Measured values: patent US7291638B2, “3-amido-1,2-benzoisoxazole derivatives, process for preparation, and use thereof” (Dongwha Pharm. Ind. Co., Ltd., priority 2001, dated 2007)
Where two headings read alike, the source gives them in different places.

Assays:
[1] = system: osteoclast cell; assay: Change in the number of osteoclast cell in osteoporotic rats induced by ovariectomy; assay type: in vivo, rat; conditions: for osteoclast cells inducing the osteolysis (in words): osteoporotic rats induced by ovariectomy, group administered the drug; for number of osteoclast cell, Tibia Left / number of osteoclast cell, Tibia Right / number of osteoclast cell, femur Left / number of osteoclast cell, femur Right: ovariectomized rats, cells within 1 mm^2 area, 10 sections, mean±SD, PEG 100 solution, intramuscular injection, 40 days; for number of osteoclast cell, femur Right: same concentration as formula 2 (100 mg per kg)
Procedure: (§1) To investigate therapeutic value of the osteoporosis to ovariectomized rats, change in the number of osteoclast cell and area ratio of trabecular bone (volume %) were measured.
(§2) After 25 female white rats purchased from Chales River (Japan) were adjusted to a new environment, temperature of 20˜25° C. and relative humidity of 30˜35%. The 5 rats were positioned in a hutch, feed (Sam Yang corporation) and water were supplied to the rats. 20 rats had the operation for the removal of an ovary, 5 rats had the Sham operation for opening and suturing the abdominal cavity, used as Sham control group.
(§3) Also, to compare drug efficacies of EXAMPLE and the compound of formula 2, 5 rats removed of the ovary were used as experimental group. The compound of formula 2 was dissolved in injectable distilled water and administered to the rats orally in an amount of 100 mg per kg for 40 days from 10 weeks after ovariectomy or Sham-operation, using oral sonde. 5 ml/kg was administered to the rats. […] 5 ml/kg was administered to the rats.
(§4) After administration terminated, the femur and tibia were removed from the animals, and fixed in 10% neutral formalin. The fixed tissue was decalcified in a solution (solution mixed 24.4% formic acid and 0.5 N sodium hydroxide) for 5 days, embedded in paraffin and 3˜4 μm sections were prepared. After that prepared section were dyed by hematoxylin-eosin.
Change in the number of osteoclast cell was calculated by mean±standard deviation through the number of the osteoclast cell existed within 1 mm^2 area at the 10 sections. The experiment group administered was compared with the control group not and Sham group.

[2] = system: osteoporotic rat induced by ovariectomy; assay: Area ratio of trabecular bone in osteoporotic rats induced by ovariectomy; assay type: in vivo; conditions: for area ratio of trabecular bone, Femur Left / area ratio of trabecular bone, Tibia Left / area ratio of trabecular bone, Tibia Right / area ratio of trabecular bone, Femur Right: ovariectomized rats, 40 days
Procedure: as §1, §2, §3, §4
Also, the area ratio of trabecular bone was calculated at the section of the femur and tibia respectively, through the equation.

[3] = Pharmacokinetics test in rats (oral; plasma concentration of the compound of formula 2 by HPLC); assay type: in vivo, rat
Procedure: Male white rats (Sprague-Dawley) having body weights of 230˜260 g were used, 3˜4 rats were tested for a drug. Rats were fasted for 18˜20 hours before the drug was administered. The weight of rat was measured on the day of the experiment, the drug was administered orally to the rats according to dosage. After administration, rats were lightly anesthetized with diethyl ether. At […], 0.17, 0.5, 1.0, 1.5, 3.0, 5.0, 8.0 hours, the blood was collected from orbit vein of the rats by canulation. The collected blood was centrifuged, and the plasma was isolated. To determine concentration of the drug in plasma, HPLC was carried out as follows. Acetonitrile containing internal standard substance and the isolated plasma was mixed in the same amount, followed by centrifuging at 12,000 rpm. The supernatent was applied to HPLC, bioavailability of the compounds prepared in EXAMPLES was measured by analyzing a plasma concentration of the compound of formula 2.
Pharmacokinetics parameters were measured by noncompartmental analysis, using WinNolin (ver. 1.0 Scientific Consulting Inc., USA). Time and maximum plasma concentration were registered by observed data, half life was calculated by linear regression analysis of terminal elimination phase.

[4] = osteoporotic rats induced by ovariectomy
[5] = PEG 100 solution, intramuscular injection
[6] = male Sprague-Dawley rats, 50 mg/kg, vehicle DW (distilled water)
[7] = male Sprague-Dawley rats, 50 mg/kg, vehicle DW (distilled water), analyte compound of formula 2 in plasma
[8] = injectable distilled water, oral, 100 mg per kg
[9] = male Sprague-Dawley rats, 100 mg/kg, vehicle DW (distilled water)

For COc1cc(C(=O)N(C(C)C)C(C)C)ccc1OCCCCOc1ccc2onc(NC(=O)[C@H](C)N)c2c1.CS(=O)(=O)O [Example 2, (1S)-1-{5-[4-(4-diisopropylcarbamoyl-2-methoxy-phenoxy)-butoxy]-benzo[d]isoxazole-3-ylcarbamoyl)-ethyl-ammonium methane sulfonic acid salt], the “osteoclast cells inducing the osteolysis (in words)” value [1] was “significantly decreased”, the “number of osteoclast cell, Tibia Left” value [1] was 4.50 ± 1.60*.^# and the “number of osteoclast cell, Tibia Right” value [1] was 5.63 ± 1.30*.^#. The “number of osteoclast cell, femur Left” value [1] was 4.50 ± 1.69*.^#, the “number of osteoclast cell, femur Right” value [1] was 5.00 ± 1.51*.^## and the “area ratio of trabecular bone compared to the control group (in words)” value [2, 4] was “excellently increased”. For the same molecule, the “therapeutic value (area ratio of the trabecular bone) compared with the compound of formula 2 (in words)” value [2, 4] was “more distinguished therapeutic value than the compound of formula 2”, the “area ratio of trabecular bone, Femur Left” value [2, 5] was 41.95 ± 8.78 volume % and the “area ratio of trabecular bone, Tibia Left” value [2, 5] was 40.12 ± 7.20**.^# volume %. For the same molecule, the “area ratio of trabecular bone, Tibia Right” value [2, 5] was 35.58 ± 9.55*.^## volume % and the “area ratio of trabecular bone, Femur Right” value ([2]; PEG 100 solution, intramuscular injection, same concentration as formula 2 (100 mg per kg)) was 33.93 ± 3.71*.^## volume %.

In the case of COc1cc(C(=O)N(C(C)C)C(C)C)ccc1OCCCCOc1ccc2onc(NC(=O)[C@@H](N)C(C)C)c2c1.CS(=O)(=O)O [Example 4, (1S)-1-{5-[4-(4-diisopropylcarbamoyl-2-methoxy-phenoxy)-butoxy]-benzo[d-]isoxazole-3-ylcarbamoyl)-2-methyl-propyl-ammonium methane sulfonic acid salt], the T1/2 [3, 6] is reported as 66.6 min, the Tmax [3, 6] is reported as 30 min and the “Total AUC” value [3, 6] is reported as 2450 ng·h/mL. For the same molecule, the Cmax [3, 7] was 980 ng/mL.

For COc1cc(C(=O)N(C(C)C)C(C)C)ccc1OCCCCOc1ccc2c(N)noc2c1 [Formula 2, reference compound], the “Total AUC” value ([3]; male Sprague-Dawley rats, 50 mg/kg, vehicle DMSO) was 190 ng·h/mL, the Cmax ([3]; male, Sprague-Dawley, rat, plasma, po, 50 mg/kg, male Sprague-Dawley rats, 50 mg/kg, vehicle DMSO, read-out: Cmax) was 470 ng/mL and the Tmax ([3]; male, Sprague-Dawley, rat, plasma, po, 50 mg/kg, male Sprague-Dawley rats, 50 mg/kg, vehicle DMSO, read-out: Tmax) was 10.2 min. For the same molecule, the Cmax ([3]; male, Sprague-Dawley, rat, plasma, po, 50 mg/kg, male Sprague-Dawley rats, 50 mg/kg, vehicle DW + T (distilled water + tween 80), read-out: Cmax) was 80 ng/mL, the Tmax ([3]; male, Sprague-Dawley, rat, plasma, po, 50 mg/kg, male Sprague-Dawley rats, 50 mg/kg, vehicle DW + T (distilled water + tween 80), read-out: Tmax) was 90 min and the “drug absorption (in words)” value ([3]; rat, 50 mg per kg, dissolved in distilled water and tween 80) was “no drug was absorbed”. The half-life ([3]; rat, plasma, male Sprague-Dawley rats, 50 mg/kg, vehicle DMSO) was 19.2 min, the “area ratio of trabecular bone, Femur Left” value [2, 8] was 31.38 ± 7.88*.^## volume % and the “area ratio of trabecular bone, Femur Right” value [2, 8] was 31.69 ± 9.83 volume %. The “area ratio of trabecular bone, Tibia Left” value [2, 8] was 28.22 ± 5.54 volume % and the “area ratio of trabecular bone, Tibia Right” value [2, 8] was 29.35 ± 11.37 volume %.

With “{5-[4-(4-diisopropylcarbamoyl-2-methoxy-phenoxy)-butoxy]-benzo[d]isoxazole-3-ylcarbamoyl}-methyl-ammonium methane sulfonic acid salt [Example 1]” the Tmax [3, 6] was 30 min, the “Total AUC” value [3, 6] was 5720 ng·h/mL and the Cmax [3, 7] was 1530 ng/mL. For the same molecule, the Cmax [3, 9] was 1510 ng/mL, the Tmax [3, 9] was 30 min and the “Total AUC” value [3, 9] was 11080 ng·h/mL. The “osteoclast cells inducing the osteolysis (in words)” value [1] was “significantly decreased”, the “number of osteoclast cell, Tibia Left” value [1] was 5.40 ± 2.76*.^## and the “number of osteoclast cell, Tibia Right” value [1] was 5.30 ± 2.00*.^#. For the same molecule, the “number of osteoclast cell, femur Left” value [1] was 5.10 ± 2.38*.^# and the “number of osteoclast cell, femur Right” value [1] was 4.90 ± 1.52*.^#.
